Patent US10654847B2, “Substituted 2-(4-heterocyclylbenzyl)isoindolin-1-one analogs as positive allosteric modulators of the muscarinic acetylcholine receptor M1” (Vanderbilt University, priority 2011, dated 2020)

Biological target: T1, mAChR M1 (UniProt P11229)
T1 sequence (P11229 1-460): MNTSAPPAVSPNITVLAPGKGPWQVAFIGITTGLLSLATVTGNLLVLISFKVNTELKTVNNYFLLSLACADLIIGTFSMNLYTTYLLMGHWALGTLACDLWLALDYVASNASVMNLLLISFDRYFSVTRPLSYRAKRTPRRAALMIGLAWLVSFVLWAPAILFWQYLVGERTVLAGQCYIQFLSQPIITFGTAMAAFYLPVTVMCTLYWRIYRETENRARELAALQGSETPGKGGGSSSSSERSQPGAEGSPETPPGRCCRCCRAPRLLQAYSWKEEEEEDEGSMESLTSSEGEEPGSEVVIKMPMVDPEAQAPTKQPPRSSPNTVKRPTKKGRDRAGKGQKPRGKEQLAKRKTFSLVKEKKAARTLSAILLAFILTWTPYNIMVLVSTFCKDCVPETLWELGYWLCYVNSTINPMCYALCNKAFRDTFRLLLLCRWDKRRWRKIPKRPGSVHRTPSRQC
Assay: mAChR M1 cell-based functional assay (calcium mobilization, potentiation of EC20 acetylcholine response)
Conditions: for Emax (%): % ACh maximum at 30 μM, mAChR M1-expressing CHO-K1 cells, calcium flux; for pEC50 / EC50: positive allosteric modulation of EC20 ACh response, mAChR M1 CHO-K1 cells; for pEC50: <5 estimated where no plateau; for EC50: >10 μM estimated where no plateau, read-out: EC50

| Emax (%) | pEC50 | EC50 | SMILES |
| --- | --- | --- | --- |
| <30% | <5.00 | > 10 µM | O=S1(=O)c2ccccc2CN1Cc1ccc(-n2cccn2)cc1 [Example B115] |
| 43% | <5.00 | > 10 µM | Cn1cc(-c2cnc(CN3Cc4ccccc4C3=O)c(F)c2)cn1 [Example B21] |
